Results: patent publication US20260218267A1, “METHODS AND COMPOSITIONS FOR PRODUCTION AND PURIFICATION OF PEPTIDES” (priority 2023, published 2026)

What was measured:
[1] = tested on: grey mold (Botrytis cinerea); assay: Disease control assay, tomato plants infected with grey mold; assay type: in vivo; conditions: peptide sprayed 24 h post infection at 0.1 g/l or 0.3 g/l, FIG. 17
Description: The peptides were sprayed 24 h post infection at concentration of 0.1 g/l or 0.3 g/l.
Peptide production was performed using the chaotropic agent-free protocol described in Example 8.
A synthetic peptide (MP18913), which mimics the concatemeric sequence with an N-terminus proline (P) and C-terminus aspartate (D), was chemically synthetized and used as a control treatment.
Peptide activity was assessed by a disease control assay using tomato plants infected with grey mold (Botrytis cinerea). Peptides were sprayed 24 h post infection at concentration of 0.1 g/l or 0.3 g/l. Disease control percentage was determined based on convex hull recovery, with a total of 7 plants examined (n=7) upon infection with Botrytis spores at 250 spores/ml.

[2] = general statement on onconase; cited from earlier work

MP18913 (PKKEEMSYMKRD)
Control of tomato grey mold infection, comparison in words [1]: as effective, or slightly more effective, than the chemically synthetized version

B1: Onconase: RNAse first identified in Rana pipiens, about 104 amino acids, used as insoluble carrier polypeptide (protein, UniProt P22069 1-104, looked up)
Protein P-30: QDWLTFQKKHITNTRDVDCDNIMSTNLFHCKDKNTFIYSRPEPVKAICKGIIASKNVLTTSEFYLSDCNVTSRPCKYKLKKSTNKFCVTCENQAPVHFVGVGSC
pI [2]: higher than 9.5
